Experimental data: patent publication US20230117034A1, “PYRAZOLOTRIAZINES” (Bayer Aktiengesellschaft, priority 2019, published 2023)

Key:
CDK12/CycK = CDK12/CycK (Homo sapiens, UniProt Q9NYV4); assay: CDK12/CycK high ATP kinase assay (TR-FRET, 2 mM ATP); type: biochemical; conditions: 2 mM ATP (high ATP); median; read-out: CDK12/CyclinK, 2 mM ATP (high ATP), IC50-[mol/l] (median)
In short: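 His-tagged human CDK12/CycK (~0.75 nM) pre-incubated 15 min with compound, then 60 min at 22 °C with 2 mM ATP and 1 µM biotinylated peptide (HEPES pH 7.5, 20 mM MgCl2). EDTA stop; phospho-Ser62 antibody/Eu anti-rabbit and streptavidin-XL665 TR-FRET, 665/620 nm ratio normalised to give IC50.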

CDK9/CycT1 = molecular target: T1, CDK9/CycT1 (Homo sapiens, UniProt P50750); assay: CDK9/CycT1 high ATP kinase assay (TR-FRET, 2 mM ATP); type: biochemical; conditions: 2 mM ATP (high ATP); median; read-out: CDK9/CyclinT1, 2 mM ATP (high ATP), IC50 (median)
T1 construct: Recombinant full-length His-tagged human CDK9 and CycT1; purchased Life Technologies PV4131; host or cells: insect cells
T1 sequence (P50750 whole entry): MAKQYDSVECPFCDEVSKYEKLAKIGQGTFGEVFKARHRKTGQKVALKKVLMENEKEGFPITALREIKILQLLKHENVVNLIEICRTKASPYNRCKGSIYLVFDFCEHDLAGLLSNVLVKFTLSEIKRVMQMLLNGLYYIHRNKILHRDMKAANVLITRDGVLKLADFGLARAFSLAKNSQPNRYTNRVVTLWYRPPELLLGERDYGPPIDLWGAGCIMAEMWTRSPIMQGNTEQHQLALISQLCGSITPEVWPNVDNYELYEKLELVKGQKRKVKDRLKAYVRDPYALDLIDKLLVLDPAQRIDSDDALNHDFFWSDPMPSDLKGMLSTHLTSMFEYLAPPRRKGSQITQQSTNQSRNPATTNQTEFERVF
T1 sequence (O60563 whole entry partner): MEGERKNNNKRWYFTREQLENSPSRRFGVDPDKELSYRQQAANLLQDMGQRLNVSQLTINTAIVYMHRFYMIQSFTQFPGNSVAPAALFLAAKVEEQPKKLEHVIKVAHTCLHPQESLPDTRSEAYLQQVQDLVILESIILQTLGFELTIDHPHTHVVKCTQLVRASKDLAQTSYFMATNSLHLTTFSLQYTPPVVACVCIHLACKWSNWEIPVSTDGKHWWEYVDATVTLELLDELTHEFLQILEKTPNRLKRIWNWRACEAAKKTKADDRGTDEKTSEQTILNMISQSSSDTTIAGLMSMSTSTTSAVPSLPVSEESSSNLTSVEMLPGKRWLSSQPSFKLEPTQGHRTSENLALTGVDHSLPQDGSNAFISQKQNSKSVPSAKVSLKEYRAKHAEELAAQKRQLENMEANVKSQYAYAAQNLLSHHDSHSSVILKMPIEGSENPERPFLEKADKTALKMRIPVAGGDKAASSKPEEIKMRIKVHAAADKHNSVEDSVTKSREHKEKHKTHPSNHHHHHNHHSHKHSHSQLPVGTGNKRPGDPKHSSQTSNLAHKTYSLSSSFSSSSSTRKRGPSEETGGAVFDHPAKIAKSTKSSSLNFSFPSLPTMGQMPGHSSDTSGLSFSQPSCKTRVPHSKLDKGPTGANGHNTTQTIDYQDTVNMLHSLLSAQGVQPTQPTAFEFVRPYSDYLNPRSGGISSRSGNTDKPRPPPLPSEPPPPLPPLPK
In short: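 Full-length His-tagged human CDK9/CycT1 (insect cell, ~0.5 μg/mL) preincubated 15 min at 22 °C with compound in Tris pH 8.0, MgCl2, DTT buffer before reaction with biotinylated peptide substrate at high ATP (2 mM).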

CDK12/CycK, sequence (Q9NYV4 with tags, fused parts or gaps): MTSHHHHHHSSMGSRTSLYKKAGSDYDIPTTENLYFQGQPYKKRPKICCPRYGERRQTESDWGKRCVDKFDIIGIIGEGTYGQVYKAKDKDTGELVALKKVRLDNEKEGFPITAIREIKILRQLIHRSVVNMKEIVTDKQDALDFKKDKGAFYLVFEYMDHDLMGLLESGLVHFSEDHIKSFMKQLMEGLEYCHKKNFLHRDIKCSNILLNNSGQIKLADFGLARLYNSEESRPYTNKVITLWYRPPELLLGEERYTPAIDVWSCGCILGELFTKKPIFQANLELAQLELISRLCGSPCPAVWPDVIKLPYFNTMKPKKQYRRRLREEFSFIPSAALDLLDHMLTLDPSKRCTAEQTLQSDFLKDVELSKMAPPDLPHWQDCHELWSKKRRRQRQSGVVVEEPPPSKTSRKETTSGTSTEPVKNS
CDK12/CycK, sequence (O75909 1-300 partner limits assumed): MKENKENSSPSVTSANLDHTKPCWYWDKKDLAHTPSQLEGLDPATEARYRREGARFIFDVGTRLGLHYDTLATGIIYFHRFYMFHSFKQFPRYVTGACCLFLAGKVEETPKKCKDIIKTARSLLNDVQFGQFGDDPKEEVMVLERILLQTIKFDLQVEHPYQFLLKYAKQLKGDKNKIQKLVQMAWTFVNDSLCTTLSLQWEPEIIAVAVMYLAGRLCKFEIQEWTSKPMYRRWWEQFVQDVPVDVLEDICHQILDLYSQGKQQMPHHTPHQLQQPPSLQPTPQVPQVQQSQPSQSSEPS

IC50 (CDK12/CycK)	IC50 (CDK9/CycT1)	SMILES
15.4 µM	> 20 µM	Cc1ccc2[nH]c(CNc3nc(N4C[C@H]5C[C@@H]4CO5)nc4c(C5CC5)cnn34)nc2c1 [Example 196, 8-cyclopropyl-N-[(5-methyl-1H-benzimidazol-2-yl)methyl]-2-[(1R,4R)-2-oxa-5-azabicyclo[2.2.1]heptan-5-yl]pyrazolo[1,5-a][1,3,5]triazin-4-amine]
> 20 µM	> 20 µM	Brc1cnn2c(NCc3nc4ccccc4[nH]3)nc(N3CCC4(CCCN4)C3)nc12 (centres unmarked) [Example 215, N-(1H-benzimidazol-2-ylmethyl)-8-bromo-2-(1,7-diazaspiro[4.4]nonan-7-yl)pyrazolo[1,5-a][1,3,5]triazin-4-amine]
> 20 µM	> 20 µM	OCCNc1nc(NCc2nc3ccccc3[nH]2)n2ncc(Br)c2n1 [Example 228, 2-[(4-{[(1H-benzimidazol-2-yl)methyl]amino}-8-bromopyrazolo[1,5-a][1,3,5]triazin-2-yl)amino]ethan-1-ol]
9.51 µM	> 20 µM	CCNc1nc(NCc2nc3ccccc3[nH]2)n2ncc(Br)c2n1 [Example 227, N4-(1H-benzimidazol-2-ylmethyl)-8-bromo-N2-ethyl-pyrazolo[1,5-a][1,3,5]triazine-2,4-diamine]
10.3 µM	> 20 µM	CC1(O)CCN(c2nc(NCc3nc4ccccc4[nH]3)n3ncc(Br)c3n2)C1 (centres unmarked) [Example 225, 1-[4-(1H-benzimidazol-2-ylmethylamino)-8-bromo-pyrazolo[1,5-a][1,3,5]triazin-2-yl]-3-methyl-pyrrolidin-3-ol]
> 20 µM	> 20 µM	Cc1ccc2[nH]c(CNc3nc(N4CCN(C)CC4)nc4c(C5CC5)cnn34)nc2c1 [Example 210, 8-cyclopropyl-N-[(5-methyl-1H-benzimidazol-2-yl)methyl]-2-(4-methylpiperazin-1-yl)pyrazolo[1,5-a][1,3,5]triazin-4-amine]
4.15 µM	> 20 µM	COc1cccc2[nH]c(CNc3nc(N4C[C@@H](C)N[C@@H](C)C4)nc4c(C5CC5)cnn34)nc12 [Example 212, 8-cyclopropyl-2-[(3R,5S)-3,5-dimethylpiperazin-1-yl]-N-[(4-methoxy-1H-benzimidazol-2-yl)methyl]pyrazolo[1,5-a][1,3,5]triazin-4-amine]
> 20 µM	> 20 µM	CN1C[C@@H]2C[C@H]1CN2c1nc(NCc2nc3ccccc3[nH]2)n2ncc(Br)c2n1 [Example 219, N-[(1H-benzimidazol-2-yl)methyl]-8-bromo-2-[(1S,4S)-5-methyl-2,5-diazabicyclo[2.2.1]heptan-2-yl]pyrazolo[1,5-a][1,3,5]triazin-4-amine]
1.79 µM	> 18.7 µM	CN(CC(C)(C)O)c1nc(NCc2nc3ccccc3[nH]2)n2ncc(Br)c2n1 [Example 238, 1-[(4-{[(1H-benzimidazol-2-yl)methyl]amino}-8-bromopyrazolo[1,5-a][1,3,5]triazin-2-yl)(methyl)amino]-2-methylpropan-2-ol]
2.74 µM	> 20 µM	COc1cccc2[nH]c(CNc3nc(N4CCNCC4)nc4c(C5CC5)cnn34)nc12 [Example 211, 8-cyclopropyl-N-[(4-methoxy-1H-benzimidazol-2-yl)methyl]-2-(piperazin-1-yl)pyrazolo[1,5-a][1,3,5]triazin-4-amine]
> 17.9 µM	> 20 µM	COC(C)(C)CNc1nc(NCc2nc3ccccc3[nH]2)n2ncc(Br)c2n1 [Example 236, N4-(1H-benzimidazol-2-ylmethyl)-8-bromo-N2-(2-methoxy-2-methyl-propyl)pyrazolo[1,5-a][1,3,5]triazine-2,4-diamine]
7.98 µM	> 20 µM	CN1CC2CCC1CN2c1nc(NCc2nc3ccccc3[nH]2)n2ncc(Br)c2n1 (centres unmarked) [Example 221, N-(1H-benzimidazol-2-ylmethyl)-8-bromo-2-(5-methyl-2,5-diazabicyclo[2.2.2]octan-2-yl)pyrazolo[1,5-a][1,3,5]triazin-4-amine]
0.805 µM	> 20 µM	FC(F)(F)c1cnn2c(NCc3nc4ccccc4[nH]3)nc(N3CCOCC3)nc12 [Example 241, N-[(1H-benzimidazol-2-yl)methyl]-2-(morpholin-4-yl)-8-(trifluoromethyl) pyrazolo[1,5-a][1,3,5]triazin-4-amine]
> 20 µM	> 20 µM	CN1CCCC2CN(c3nc(NCc4nc5ccccc5[nH]4)n4ncc(Br)c4n3)CC21 (centres unmarked) [Example 231, N-[(1H-benzimidazol-2-yl)methyl]-8-bromo-2-(1-methyloctahydro-6H-pyrrolo[3,4-b]pyridin-6-yl)pyrazolo[1,5-a][1,3,5]triazin-4-amine]
5.55 µM	> 20 µM	Brc1cnn2c(NCc3nc4ccccc4[nH]3)nc(N3CC4CCC3CN4)nc12 (centres unmarked) [Example 220, N-(1H-benzimidazol-2-ylmethyl)-8-bromo-2-(2,5-diazabicyclo[2.2.2]octan-2-yl)pyrazolo[1,5-a][1,3,5]triazin-4-amine]

Continued, compound first:

SMILES	IC50 (CDK12/CycK)	IC50 (CDK9/CycT1)
Cc1ccc2[nH]c(CNc3nc(N4C[C@@H]5CCCN[C@@H]5C4)nc4c(C5CC5)cnn34)nc2c1 [Example 195, 8-cyclopropyl-N-[(5-methyl-1H-benzimidazol-2-yl)methyl]-2-[(4aS,7aS)-octahydro-6H-pyrrolo[3,4-b]pyridin-6-yl]pyrazolo[1,5-a][1,3,5]triazin-4-amine]	8.23 µM	> 20 µM
Brc1cnn2c(NCc3nc4ccccc4[nH]3)nc(N3CC4CCC(C3)N4)nc12 [Example 232, N-(1H-benzimidazol-2-ylmethyl)-8-bromo-2-(3,8-diazabicyclo[3.2.1]octan-3-yl)pyrazolo[1,5-a][1,3,5]triazin-4-amine]	5.28 µM	> 20 µM
CC(C)c1cnn2c(NCc3nc4ccccc4[nH]3)nc(Nc3ccccc3)nc12 [Example 13, N^4-[(1H-benzimidazol-2-yl)methyl]-N^2-phenyl-8-(propan-2-yl)pyrazolo[1,5-a][1,3,5]triazine-2,4-diamine]	> 20 µM	> 20 µM
Fc1ccc2[nH]c(CNc3nc(N4CCOCC4)nc4c(C5CC5)cnn34)nc2c1 [Example 181, 8-cyclopropyl-N-[(5-fluoro-1H-benzimidazol-2-yl)methyl]-2-(morpholin-4-yl)pyrazolo[1,5-a][1,3,5]triazin-4-amine]	1.91 µM	> 20 µM
OC[C@@H]1CCCCN1c1nc(NCc2nc3cc(F)ccc3[nH]2)n2ncc(C3CC3)c2n1 [Example 191, [(2S)-1-(8-cyclopropyl-4-{[(5-fluoro-1H-benzimidazol-2-yl)methyl]amino}pyrazolo[1,5-a][1,3,5]triazin-2-yl)piperidin-2-yl]methanol]	0.332 µM	7.34 µM
Cc1ccc2[nH]c(CNc3nc(N4C[C@@H](C)N[C@@H](C)C4)nc4c(C5CC5)cnn34)nc2c1 [Example 194, 8-cyclopropyl-2-[(3R,5S)-3,5-dimethylpiperazin-1-yl]-N-[(5-methyl-1H-benzimidazol-2-yl)methyl]pyrazolo[1,5-a][1,3,5]triazin-4-amine]	3.7 µM	> 20 µM
CN(C)[C@H]1CCN(c2nc(NCc3nc4ccccc4[nH]3)n3ncc(Br)c3n2)C1 [Example 177, N-[(1H-benzimidazol-2-yl)methyl]-8-bromo-2-[(3S)-3-(dimethylamino)pyrrolidin-1-yl]pyrazolo[1,5-a][1,3,5]triazin-4-amine]	> 20 µM	> 20 µM
Clc1cnn2c(NCc3nc4ccccc4[nH]3)nc(N3CCOCC3)nc12 [Example 15, N-[(1H-benzimidazol-2-yl)methyl]-8-chloro-2-(morpholin-4-yl)pyrazolo[1,5-a][1,3,5]triazin-4-amine]	6.02 µM	> 20 µM
Fc1cccc2[nH]c(CNc3nc(N4CCNCC4)nc4c(C5CC5)cnn34)nc12 [Example 182, 8-cyclopropyl-N-[(4-fluoro-1H-benzimidazol-2-yl)methyl]-2-(piperazin-1-yl)pyrazolo[1,5-a][1,3,5]triazin-4-amine]	2.04 µM	> 20 µM
C[C@@H]1CN(c2nc(NCc3nc4c(F)c(F)ccc4[nH]3)n3ncc(C4CC4)c3n2)C[C@H](C)N1 [Example 170, 8-cyclopropyl-N-[(4,5-difluoro-1H-benzimidazol-2-yl)methyl]-2-[(3R,5S)-3,5-dimethylpiperazin-1-yl]pyrazolo[1,5-a][1,3,5]triazin-4-amine]	3.04 µM	> 20 µM
OC[C@@H]1CCCCN1c1nc(NCc2nc3c(F)cccc3[nH]2)n2ncc(C3CC3)c2n1 [Example 189, [(2S)-1-(8-cyclopropyl-4-{[(4-fluoro-1H-benzimidazol-2-yl)methyl]amino}pyrazolo[1,5-a][1,3,5]triazin-2-yl)piperidin-2-yl]methanol]	0.0109 µM	2.2 µM
C[C@@H]1CN(c2nc(NCc3nc4c(F)cccc4[nH]3)n3ncc(C4CC4)c3n2)C[C@H](C)N1 [Example 186, 8-cyclopropyl-2-[(3R,5S)-3,5-dimethylpiperazin-1-yl]-N-[(4-fluoro-1H-benzimidazol-2-yl)methyl]pyrazolo[1,5-a][1,3,5]triazin-4-amine]	2.72 µM	> 20 µM
Fc1ccc2[nH]c(CNc3nc(N4CCNCC4)nc4c(C5CC5)cnn34)nc2c1F [Example 174, 8-cyclopropyl-N-[(4,5-difluoro-1H-benzimidazol-2-yl)methyl]-2-(piperazin-1-yl)pyrazolo[1,5-a][1,3,5]triazin-4-amine]	1.19 µM	> 20 µM
